Experimental data: patent EP4813991A1 (iLeadBMS Co., Ltd., priority 2023, dated 2025)
pIC50: −log10 of the molar value.

Legend:
Type in all cases: cell-based
MKN45 cells = test: Gastric cancer cell proliferation inhibitory activity (CellTiter Glo), MKN45; conditions: Homo sapiens, MKN-45, 72 hours, relative IC50
Protocol: (§1) Experiments were performed using four types of gastric cancer cell lines (AGS, SNU-1, KATO-III, and MKN45) to measure the cell proliferation inhibitory ability of each Example compound. For AGS cells, 90 µL of cell suspension was dispensed into a 96-well plate using F-12K (Gibco) medium containing 10 % FBS, followed by incubation in a cell incubator at 37 °C and 5 % CO2. For SNU-1 and MKN45 cells, 90 µL of cell suspension was dispensed into a 96-well plate using RPMI1640 (Gibco) medium containing 10 % FBS, followed by incubation in a cell incubator at 37 °C and 5 % CO2. For KATO-III cells, 90 uL of cell suspension was dispensed into a 96-well plate using IMDM (Gibco) medium containing 10 % FBS, followed by incubation in a cell incubator at 37 °C and 5 % CO2. The next day, each Example compound dissolved and diluted in DMSO across 9 concentration ranges and a DMSO control group were added at 10 µL to each 96-well plate and treated for 72 hours. After completion of the compound treatment, 100 µL of CellTiter Glo (Promega) reagent was added to each well of the 96-well plate, followed by shaking for 10 minutes and standing at room temperature for 10 minutes. Luminescence signals were measured after inserting the 96-well plate into an Envision plate reader (PerkinElmer). Relative IC50 values were calculated by fitting a dose-response curve using XLfit (IDBS Ltd) software.
(§2) The gastric cancer cell proliferation inhibitory activities of the Example compounds measured by the method described above were evaluated according to the following criteria, and the results are presented in Table 16.

KATO-III cells = test: Gastric cancer cell proliferation inhibitory activity (CellTiter Glo), KATO-III; conditions: Homo sapiens, KATO III, 72 hours, relative IC50
Protocol: as §1, §2

AGS cells = test: Gastric cancer cell proliferation inhibitory activity (CellTiter Glo), AGS; conditions: Homo sapiens, AGS, 72 hours, relative IC50
Protocol: as §1, §2

MDA-MB-436 cells = test: Breast cancer cell proliferation inhibitory activity, MDA-MB-436; conditions: Homo sapiens, 72 hours, CellTiter Glo, relative IC50
Protocol: (§3) Experiments were conducted using three types of breast cancer cell lines to measure the cell proliferation inhibitory ability of each Example compound. For HCC70 cells, 100 µL of cell suspension was dispensed into a 96-well plate using RPMI1640 (Invitrogen) medium containing 10 % FBS, followed by incubation in a cell incubator at 37 °C and 5 % CO2. For BT-20 cells, 100 µL of cell suspension was dispensed into a 96-well plate using EMEM (Invitrogen) medium containing 10 % FBS, followed by incubation in a cell incubator at 37 °C and 5 % CO2. For MDA-MB-436 cells, 100 µL of cell suspension was dispensed into a 96-well plate using L-15 (Invitrogen) medium containing 10 % FBS, followed by incubation in a cell incubator at 37 °C and 0 % CO2. The next day, each Example compound dissolved and diluted in DMSO across 9 concentration ranges and a DMSO control group were treated on the cells for 72 hours. After completion of the compound treatment, 100 µL of CellTiter Glo (Promega) reagent was added to each well of the 96-wellplate, followed by shaking for 10 minutes and standing at room temperature for 10 minutes. After inserting the 96-well plate into an Envision plate reader (PerkinElmer), luminescence signals were measured. Relative IC50 values were calculated by fitting a dose-response curve using XL fit (IDBS Ltd) software.
(§4) The breast cancer cell proliferation inhibitory activities of the Example compounds measured by the method described above were evaluated according to the following criteria, and the results are presented in Table 15.

BT-20 cells = test: Breast cancer cell proliferation inhibitory activity, BT-20; conditions: Homo sapiens, 72 hours, CellTiter Glo, relative IC50
Protocol: as §3, §4

SNU-1 = test: Gastric cancer cell proliferation inhibitory activity (CellTiter Glo), SNU-1; conditions: Homo sapiens, SNU1, 72 hours, relative IC50
Protocol: as §1, §2

[1] = system: MDA-MB-231 breast cancer cells; test: Proliferation inhibitory activity assay against MDA-MB-231 breast cancer cells; conditions: Homo sapiens, 72 hours, CellTiter Glo, relative IC50
How it was run: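 Cells grown in L-15 with 10% FBS at 37 °C, 0% CO2, then exposed next day to compounds at 9 concentrations (DMSO vehicle) for 72 h. Viability read by CellTiter Glo luminescence; relative IC50 from dose-response curve fit.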

Structure (SMILES) | pIC50 (MKN45 cells) | pIC50 (KATO-III cells) | pIC50 (AGS cells) | pIC50 (MDA-MB-436 cells) | pIC50 (BT-20 cells) | pIC50 (SNU-1) | pIC50 [1]
CN1CCN(c2cc(NCc3nc4ccc(F)c(F)c4[nH]3)c3ncc(C(F)(F)F)n3n2)CC1 [Example 8, N-((6,7-difluoro-1H-benzo[d]imidazol-2-yl)methyl)-6-(4-methylpiperazin-1-yl)-3-(trifluoromethyl)imidazo[1,2-b]pyridazin-8-amine] | ≥ 6.70 | ≥ 6.70 | ≥ 6.70 | ≥ 7.30 | ≥ 7.30 | ≥ 6.70 | ≥ 7.30
CN1CCN(c2cc(NCc3nc4cc(Cl)c(Cl)cc4[nH]3)c3ncc(C(F)(F)F)n3n2)CC1 [Example 29, N-((5,6-dichloro-1H-benzo[d]imidazol-2-yl)methyl)-6-(4-methylpiperazin-1-yl)-3-(trifluoromethyl)imidazo[1,2-b]pyridazin-8-amine] | ≥ 6.70 | ≥ 6.70 | ≥ 6.70 | ≥ 7.30 | ≥ 7.30 | ≥ 6.70 | ≥ 7.30
N#CC1CN(c2cc(NCc3nc4cc(Cl)c(Cl)cc4[nH]3)c3ncc(C(F)(F)F)n3n2)C1 [Example 30, 1-(8-(((5,6-dichloro-1H-benzol[d]imidazol-2-yl)methyl)amino)-3-(trifluoromethyl)imidazo[1,2-b]pyridazin-6-yl)azetidine-3-carbonitrile] | ≥ 6.70 | ≥ 6.70 | ≥ 6.70 | ≥ 7.30 | ≥ 7.30 | ≥ 6.70 | ≥ 7.30
Nc1ncc(-c2cc(NCc3nc4cc(Cl)c(Cl)cc4[nH]3)c3ncc(C(F)(F)F)n3n2)cn1 [Example 40] |  |  |  |  |  |  | ≥ 7.30
